Patent US8785491B2, “Pharmaceutical compositions and methods for treating age-related macular degeneration with melatonin analogues” (Takeda Pharmaceuticals U.S.A., Inc., priority 2008, dated 2014)
Read-outs that look alike come from different tables or passages of the source.

Legend:
N18-RE-105 hybrid cells = assay: Effect against glutamate-induced cytotoxicity (LDH release)
Protocol: We used ramelteon and metabolite 1 (as synthesized in Example 1) in this study. Idebenone and vitamine E (α-tocopherol) were purchased from Wako Pure Chemical Industries (Osaka, Japan) and used as positive control. All other chemicals were purchased from standard sources.
For cytotoxicity studies, cells were plated in 96-well plates at a density of 5,000 cells per well in 0.1 ml of the above medium. After culturing for 24 hr, the medium was removed and replaced with medium containing 10 mM glutamate with or without various concentrations of compounds. After 24 hours of incubation, cytotoxicity was quantitated by the release of the cytosolic enzyme lactate dehydrogenase (LDH) into the culture medium. The percentage of cell viability in the presence of each of the test compounds was calculated from the following formula: % cell viability in the presence of compound={LDH activity (absorbance at 550 nm) in the culture medium with compound plus 10 mM glutamate−LDH activity in the control culture medium/LDH activity in the culture medium with 10 mM glutamate−LDH activity in the control culture medium}×100.

[1] = tested on: human retinal pigment epithelial (RPE) cells; settings: added diurnally to RPE cell cultures for three consecutive days; cited from earlier work
[2] = tested on: age-related macular degeneration; settings: 3 mg daily at bedtime for at least three months; cited from earlier work
[3] = tested on: melatonin MT1/MT2 receptors; settings: cited from earlier work

## COC1=C(OC)C(=O)C(CCCCCCCCCCO)=C(C)C1=O [Idebenone]
N18-RE-105 hybrid cells
  effect on cytotoxicity induced by 10 mM glutamate / cell viability: cell viability was increased

## COc1ccc2[nH]cc(CCNC(C)=O)c2c1 [melatonin]
[1]
  H2O2-induced cell death and mitochondrial DNA damage: markedly reduced
[2]
  visual acuity: remained stable
N18-RE-105 hybrid cells
  effect on cytotoxicity induced by 10 mM glutamate / cell viability: did not affect cell viability

## CCC(=O)NCC[C@@H]1CCc2cc(O)c3c(c21)CCO3 [metabolite 1, (S)—N-(2-[4-hydroxy-1,6,7,8-tetrahydro-2H-indeno[5,4-b]furan-8-yl]ethyl)propionamide]
N18-RE-105 hybrid cells
  effect on cytotoxicity induced by 10 mM glutamate / cell viability: inhibited
N18-RE-105 hybrid cells; 10 mM glutamate treated cell culture, increasing amount, FIG. 2
  cell death (absorbance, LDH) with varying amounts of compound: cell death is reduced
N18-RE-105 hybrid cells; highest concentration, 10 mM glutamate, FIGS. 1 and 2
  toxicity of glutamate over the basal viability: completely prevented

## CCC(=O)NCC[C@@H]1CCc2ccc3c(c21)CCO3 [ramelteon, (S)—N-[2-(1,6,7,8-tetrahydro-2H-indeno[5,4-b]furan-8-yl)ethyl]propionamide]
[3]
  affinity for melatonin MT1/MT2 receptors: high affinity
N18-RE-105 hybrid cells
  effect on cytotoxicity induced by 10 mM glutamate / cell viability: did not affect cell viability

## Cc1c(C)c2c(c(C)c1O)CC[C@@](C)(CCC[C@H](C)CCC[C@H](C)CCCC(C)C)O2 [tocopherol, α-tocopherol]
N18-RE-105 hybrid cells; 10 mM glutamate, 24 hours incubation, LDH release, FIG. 1
  effect on cytotoxicity induced by 10 mM glutamate / cell viability: cell viability was increased
